≈ marks a conversion by molar mass, not a printed value. Values belong to the compound of their own block, whether it stands above or below them.
Legend:
[1] = biological target: human soluble guanylate cyclase alpha 1 and beta 1 subunits (sGC) (Homo sapiens (Human), UniProt Q02108+Q02153); experiment: sGC cellular activator assay (cGMP, HTRF), in the presence and absence of 50% human serum; assay type: cell-based; details: CHO cells stably expressing human sGC alpha 1/beta 1, preincubated with 40 microM ODQ; cGMP by HTRF; Table 2 does not state whether with or without 50% human serum
How it was run: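 First, CHO-sGC (human α1β1) cells get 1 h ODQ at 40 microM with IBMX and 0.1% BSA. Finally, cGMP is quantified by HTRF and EC50 computed.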

[2] = Human liver microsome (HLM) metabolic stability assay; assay type: in vitro ADME; details: human liver microsomes
How it was run: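 Remaining parent measured by LC/MS/MS (ESI, MRM) at 5, 15, 30 and 60 min relative to 0 min. Incubation: 1 uM compound, HLMs, NADPH-started, 37° C., 60 min total, single replicate. Slope of ln(% remaining) gives t1/2 = 0.693/slope, then CLint, CLh and % Qh.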

physchem = details: kinetic from dmso stock
[3] = pH 2.2, aqueous buffer, Solubility (pH 2.2)
[4] = pH 4.5, aqueous buffer, Solubility (pH 4.5)
[5] = pH 6.8, aqueous buffer, Solubility (pH 6.8)

Sequence of human soluble guanylate cyclase alpha 1 and beta 1 subunits (sGC) (Q02108 whole entry partner): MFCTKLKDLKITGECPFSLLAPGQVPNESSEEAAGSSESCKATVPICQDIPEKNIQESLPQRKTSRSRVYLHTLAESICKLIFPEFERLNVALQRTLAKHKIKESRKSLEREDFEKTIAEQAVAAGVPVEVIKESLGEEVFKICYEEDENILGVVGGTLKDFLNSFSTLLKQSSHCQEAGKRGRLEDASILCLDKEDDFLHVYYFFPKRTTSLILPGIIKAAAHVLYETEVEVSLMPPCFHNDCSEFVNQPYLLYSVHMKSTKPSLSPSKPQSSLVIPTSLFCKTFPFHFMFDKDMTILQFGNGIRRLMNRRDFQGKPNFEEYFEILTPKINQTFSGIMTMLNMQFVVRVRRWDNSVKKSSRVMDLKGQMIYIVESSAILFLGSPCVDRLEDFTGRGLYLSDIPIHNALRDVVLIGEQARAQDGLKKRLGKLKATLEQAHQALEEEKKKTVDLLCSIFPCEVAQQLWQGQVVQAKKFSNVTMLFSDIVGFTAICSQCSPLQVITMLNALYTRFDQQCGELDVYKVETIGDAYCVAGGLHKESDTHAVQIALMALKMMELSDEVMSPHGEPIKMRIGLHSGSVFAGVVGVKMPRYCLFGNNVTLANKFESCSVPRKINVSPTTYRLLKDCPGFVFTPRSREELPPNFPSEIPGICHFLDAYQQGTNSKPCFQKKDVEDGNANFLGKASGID
Sequence of human soluble guanylate cyclase alpha 1 and beta 1 subunits (sGC) (Q02153 whole entry): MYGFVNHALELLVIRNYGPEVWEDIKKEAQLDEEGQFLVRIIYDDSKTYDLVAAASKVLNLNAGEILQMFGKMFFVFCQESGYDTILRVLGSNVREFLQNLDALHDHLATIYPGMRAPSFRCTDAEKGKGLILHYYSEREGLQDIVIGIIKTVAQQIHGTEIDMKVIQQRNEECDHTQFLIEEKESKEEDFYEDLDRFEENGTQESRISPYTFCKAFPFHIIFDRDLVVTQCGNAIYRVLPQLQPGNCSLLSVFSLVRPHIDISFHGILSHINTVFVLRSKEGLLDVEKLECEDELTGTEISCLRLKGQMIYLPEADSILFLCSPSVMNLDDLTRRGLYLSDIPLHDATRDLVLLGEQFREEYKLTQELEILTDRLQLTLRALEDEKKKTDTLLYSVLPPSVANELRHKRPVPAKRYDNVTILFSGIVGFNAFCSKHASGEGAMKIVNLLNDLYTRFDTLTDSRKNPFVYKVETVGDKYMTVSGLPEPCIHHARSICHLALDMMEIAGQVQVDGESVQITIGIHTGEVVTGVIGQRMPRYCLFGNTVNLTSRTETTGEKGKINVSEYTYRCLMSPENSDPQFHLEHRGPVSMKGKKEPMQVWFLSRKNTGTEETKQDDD

EC50 [1]: 108 nM | Metabolic stability (Qh %), % hepatic blood flow [2]: <24% | solubility at 24 h (physchem; [3]): 120 µg/mL (≈ 199 µM) | solubility at 24 h (physchem; [4]): 75 µg/mL (≈ 124 µM) | solubility at 24 h (physchem; [5]): 59 µg/mL (≈ 97.7 µM)
Structure (SMILES): COC[C@H]1N(c2nc(-c3cc(C)ccc3OCc3ccc4c(c3C)CCN(C3CCOCC3)C4)cs2)C[C@@H]2C[C@@]21C(=O)O [Compound 164]

EC50 [1]: 12 nM | Metabolic stability (Qh %), % hepatic blood flow [2]: <24% | solubility at 24 h (physchem; [3]): 120 µg/mL (≈ 203 µM) | solubility at 24 h (physchem; [4]): 86 µg/mL (≈ 145 µM) | solubility at 24 h (physchem; [5]): 77 µg/mL (≈ 130 µM)
Structure (SMILES): CO[C@H]1CN(c2nc(-c3cccc(C)c3OCc3ccc4c(c3C)CCN(C3CCOCC3)C4)cs2)CC[C@H]1C(=O)O [Compound 165]

EC50 [1]: 21 nM | Metabolic stability (Qh %), % hepatic blood flow [2]: <24% | solubility at 24 h (physchem; [3]): 120 µg/mL (≈ 203 µM) | solubility at 24 h (physchem; [4]): 71 µg/mL (≈ 120 µM) | solubility at 24 h (physchem; [5]): 75 µg/mL (≈ 127 µM)
Structure (SMILES): CO[C@@H]1CN(c2nc(-c3cccc(C)c3OCc3ccc4c(c3C)CCN(C3CCOCC3)C4)cs2)CC[C@@H]1C(=O)O [Compound 173]

EC50 [1]: 14 nM | Metabolic stability (Qh %), % hepatic blood flow [2]: <24% | solubility at 24 h (physchem; [3]): 110 µg/mL (≈ 186 µM) | solubility at 24 h (physchem; [4]): 72 µg/mL (≈ 122 µM) | solubility at 24 h (physchem; [5]): 5.1 µg/mL (≈ 8.62 µM)
Structure (SMILES): CO[C@H]1CN(c2nc(-c3cc(C)ccc3OCc3ccc4c(c3C)CCN(C3CCOCC3)C4)cs2)CC[C@H]1C(=O)O [Compound 178]

EC50 [1]: 46 nM | Metabolic stability (Qh %), % hepatic blood flow [2]: <24% | solubility at 24 h (physchem; [3]): 120 µg/mL (≈ 203 µM) | solubility at 24 h (physchem; [4]): 4.3 µg/mL (≈ 7.27 µM) | solubility at 24 h (physchem; [5]): 0.73 µg/mL (≈ 1.23 µM)
Structure (SMILES): CO[C@H]1CN(c2nc(-c3cc(C)ccc3OCc3cc(C)c4c(c3)CCN(C3CCOCC3)C4)cs2)CC[C@H]1C(=O)O [Compound 180]

EC50 [1]: 23 nM | Metabolic stability (Qh %), % hepatic blood flow [2]: <24% | solubility at 24 h (physchem; [3]): 120 µg/mL (≈ 198 µM) | solubility at 24 h (physchem; [4]): 53 µg/mL (≈ 87.5 µM) | solubility at 24 h (physchem; [5]): 5 µg/mL (≈ 8.25 µM)
Structure (SMILES): CO[C@H]1CN(c2nc(-c3cc(C)ccc3OCc3cc(C)c4c(c3C)CCN(C3CCOCC3)C4)cs2)CC[C@H]1C(=O)O [Compound 181]

Second part, the compound before the results:

Structure (SMILES): COC[C@H]1N(c2nc(-c3cc(C)ccc3OCc3ccc4c(c3)CCN(C3CCOCC3)C4)cs2)C[C@@H]2C[C@@]21C(=O)O [Compound 163]
EC50 [1]: 345 nM | Metabolic stability (Qh %), % hepatic blood flow [2]: <24% | solubility at 24 h (physchem; [3]): 110 µg/mL (≈ 187 µM) | solubility at 24 h (physchem; [4]): 77 µg/mL (≈ 131 µM) | solubility at 24 h (physchem; [5]): 65 µg/mL (≈ 110 µM)

Structure (SMILES): CO[C@H]1CN(c2nc(-c3cccc(C)c3OCc3ccc4c(c3C)CCN(C3COC3)C4)cs2)CC[C@H]1C(=O)O [Compound 166]
EC50 [1]: 17 nM | Metabolic stability (Qh %), % hepatic blood flow [2]: <24% | solubility at 24 h (physchem; [3]): 110 µg/mL (≈ 195 µM) | solubility at 24 h (physchem; [4]): 74 µg/mL (≈ 131 µM) | solubility at 24 h (physchem; [5]): 82 µg/mL (≈ 145 µM)

Structure (SMILES): CO[C@H]1CN(c2nc(-c3cccc(C)c3OCc3cc(C)c4c(c3)CCN(C3CCOCC3)C4)cs2)CC[C@H]1C(=O)O [Compound 167]
EC50 [1]: 10 nM | Metabolic stability (Qh %), % hepatic blood flow [2]: <24% | solubility at 24 h (physchem; [3]): 110 µg/mL (≈ 186 µM) | solubility at 24 h (physchem; [4]): 84 µg/mL (≈ 142 µM) | solubility at 24 h (physchem; [5]): 82 µg/mL (≈ 139 µM)

Structure (SMILES): CO[C@H]1CN(c2nc(-c3cccc(C)c3OCc3cc(C)c4c(c3)CCN(CC3COCCO3)C4)cs2)CC[C@H]1C(=O)O (some centres unmarked) [Compound 168]
EC50 [1]: 53 nM | Metabolic stability (Qh %), % hepatic blood flow [2]: <24% | solubility at 24 h (physchem; [3]): 130 µg/mL (≈ 214 µM) | solubility at 24 h (physchem; [4]): 87 µg/mL (≈ 143 µM) | solubility at 24 h (physchem; [5]): 81 µg/mL (≈ 133 µM)

Structure (SMILES): CCc1cc(COc2c(C)cccc2-c2csc(N3CC[C@@H](C(=O)O)[C@@H](OC)C3)n2)cc2c1CN(C1CCOCC1)CC2 [Compound 170]
EC50 [1]: 5 nM | Metabolic stability (Qh %), % hepatic blood flow [2]: <24% | solubility at 24 h (physchem; [3]): 130 µg/mL (≈ 215 µM) | solubility at 24 h (physchem; [4]): 90 µg/mL (≈ 149 µM) | solubility at 24 h (physchem; [5]): 79 µg/mL (≈ 130 µM)

Structure (SMILES): COc1cc(COc2c(C)cccc2-c2csc(N3CC[C@@H](C(=O)O)[C@@H](OC)C3)n2)cc2c1CN(C1CCOCC1)CC2 [Compound 171]
EC50 [1]: 10 nM | Metabolic stability (Qh %), % hepatic blood flow [2]: <24% | solubility at 24 h (physchem; [3]): 140 µg/mL (≈ 230 µM) | solubility at 24 h (physchem; [4]): 100 µg/mL (≈ 165 µM) | solubility at 24 h (physchem; [5]): 99 µg/mL (≈ 163 µM)

Structure (SMILES): CO[C@H]1CN(c2nc(-c3cccc(C)c3OCc3cc(F)c4c(c3)CCN(C3CCOCC3)C4)cs2)CC[C@H]1C(=O)O [Compound 172]
EC50 [1]: 7 nM | Metabolic stability (Qh %), % hepatic blood flow [2]: <24% | solubility at 24 h (physchem; [3]): 130 µg/mL (≈ 218 µM) | solubility at 24 h (physchem; [4]): 98 µg/mL (≈ 165 µM) | solubility at 24 h (physchem; [5]): 85 µg/mL (≈ 143 µM)

Structure (SMILES): CO[C@@H]1CN(c2nc(-c3cccc(C)c3OCc3ccc4c(c3C)CCN(C3COC3)C4)cs2)CC[C@@H]1C(=O)O [Compound 174]
EC50 [1]: 44 nM | Metabolic stability (Qh %), % hepatic blood flow [2]: <24% | solubility at 24 h (physchem; [3]): 120 µg/mL (≈ 213 µM) | solubility at 24 h (physchem; [4]): 79 µg/mL (≈ 140 µM) | solubility at 24 h (physchem; [5]): 83 µg/mL (≈ 147 µM)

Structure (SMILES): CO[C@@H]1CN(c2nc(-c3cccc(C)c3OCc3cc(C)c4c(c3)CCN(CC3COCCO3)C4)cs2)CC[C@@H]1C(=O)O (some centres unmarked) [Compound 175]
EC50 [1]: 155 nM | Metabolic stability (Qh %), % hepatic blood flow [2]: <24% | solubility at 24 h (physchem; [3]): 140 µg/mL (≈ 230 µM) | solubility at 24 h (physchem; [4]): 100 µg/mL (≈ 165 µM) | solubility at 24 h (physchem; [5]): 95 µg/mL (≈ 156 µM)

Structure (SMILES): COc1cc(COc2c(C)cccc2-c2csc(N3CC[C@H](C(=O)O)[C@H](OC)C3)n2)cc2c1CN(C1CCOCC1)CC2 [Compound 177]
EC50 [1]: 47 nM | Metabolic stability (Qh %), % hepatic blood flow [2]: <24% | solubility at 24 h (physchem; [3]): 140 µg/mL (≈ 230 µM) | solubility at 24 h (physchem; [4]): 100 µg/mL (≈ 165 µM) | solubility at 24 h (physchem; [5]): 96 µg/mL (≈ 158 µM)

— US9353090B2, “Heterocyclic carboxylic acids as activators of soluble guanylate cyclase” (Boehringer Ingelheim International GmbH, priority 2014, dated 2016)
